From patent US9618507B2, “Methods of treating rheumatoid arthritis” (Betanien Hospital, priority 2014, dated 2017)
Marks after values point to notes of the source that are not given here. Where a SMILES comes first, the peptide text is derived from it. [ ]: non-standard residue; d: D form. dPhe(4-Cl) = N[C@H](Cc1ccc(Cl)cc1)C(=O)O; d2Nal = N[C@H](Cc1ccc2ccccc2c1)C(=O)O; dCit = NC(=O)NCCC[C@@H](N)C(=O)O; d3Pal = N[C@H](Cc1cccnc1)C(=O)O

How the values were obtained:
CRP = conditions: high gonadotropin patients, by day 15
Description: The protocol-specified primary and secondary intention-to-treat endpoints of the original AGRA trial were analyzed in these post hoc analyses. The primary endpoint was the baseline-adjusted between-group difference in DAS28-CRP (Wells et al., supra) by day 5b. […] Multiplex technology (Luminex Inc., Austin, Tex.) measured these serum cytokines using high-sensitivity assays (sensitivities <0.5 pg/mL, allowing the detection of very low concentrations of cytokines) and identical lots of critical reagent of negligible cross-reactivity <2%, according to manufacturers' instructions (Bio-Rad, Hercules, Calif.). […]
The original power calculation is previously reported (Kass A S, et al., Scand J Rheumatol Epub ahead of print 1 Nov. 2013). Baseline-adjusted between-group differences for all continuous endpoints were assessed with the use of analysis-of-covariance using outcome measurements at predefined time points as response variables, and treatment and baseline measurements as covariates. […]

[1] = tested on: RA patients with high gonadotropin levels; experiment: Example 2: adverse events in high gonadotropin patients; format: in vivo, human
Description: The intention-to-treat population was predefined as all randomised patients who received any study-drug injections. Missing values were <1% and could, as predefined, be imputed with the last-observation-carried-forward. The assumptions of normality needed for analyses were approximately valid. All statistical tests were two-sided (α=0.05) and performed with Stata 12 and StatXact 9. Analyses were performed by an offsite statistician who received locked databases from blinded investigators and laboratories, and the allocation key from the offsite central office.

interleukin-10 = experiment: Example 2: serum cytokine, multiplex high-sensitivity assay, interleukin-10; format: in vivo, human; conditions: high gonadotropin patients
Description: The protocol-specified primary and secondary intention-to-treat endpoints of the original AGRA trial were analyzed in these post hoc analyses. The primary endpoint was the baseline-adjusted between-group difference in DAS28-CRP (Wells et al., supra) by day 5b. Secondary endpoints included the baseline-adjusted between-group difference in cytokines, proportions of patients achieving at least a 20%, 50%, and 70% improvement on the ACR scale (Felson D T, et al., Arthritis Rheum 1995; 38:727-35), categorical DAS28-CRP (European League Against […] [EULAR]) responses (Wells et al., supra; van Gestel A M, et al., Arthritis Rheum 1996; 39:34-40), DAS28-CRP≦3.2 (Wells et al., supra), DAS28-CRP<2.6 (Wells et al., supra), and the incidence of adverse events. Protocol-specified DAS28 outcomes were preferentially CRP-based rather than erythrocyte sedimentation rate (ESR)-based, as CRP usually changes before ESR. […] Multiplex technology (Luminex Inc., Austin, Tex.) measured these serum cytokines using high-sensitivity assays (sensitivities <0.5 pg/mL, allowing the detection of very low concentrations of cytokines) and identical lots of critical reagent of negligible cross-reactivity <2%, according to manufacturers' instructions (Bio-Rad, Hercules, Calif.). […] To enable intention-to-treat analyses with all patients N=53, non-detectable values were set at the lower limit of detection for cytokines, as is common for CRP values.
The original power calculation is previously reported (Kass A S, et al., Scand J Rheumatol Epub ahead of print 1 Nov. 2013). Baseline-adjusted between-group differences for all continuous endpoints were assessed with the use of analysis-of-covariance using outcome measurements at predefined time points as response variables, and treatment and baseline measurements as covariates. Dichotomous endpoints were compared with the Pearson chi-square test or Suissa-Shuster exact unconditional test, depending on expected-value distribution (Lydersen S, et al., Stat Med 2009; 28:1159-75). No adjustments for multiple analyses were made, owing to highly correlated endpoints. Due to skewed distributions, between-group changes of natural log-transformed cytokine levels from baseline were compared.

CRP, ESR = conditions: all patients
Description: Ethical committee approval was obtained. A blinded independent committee, the Oslo University Hospital Data Monitoring Committee, regularly reviewed source documents against case record forms. Safety and efficacy visits, with blood sampling, were between 0730 and 0930 h on days 1 (baseline), 2, 3, 4, 5 (visit 5a), 10, and 15. There was an additional visit (visit 5b) between 1930 and 2130 h when maximum GnRH suppression was anticipated. Using computer-generated allocation, patients were randomly assigned 1:1 to cetrorelix (5 mg/day s.c. on days 1 and 2, 3 mg/day on days 3-5) or corresponding volumes of placebo. The cetrorelix doses were chosen to achieve rapid reductions in GnRH, LH, a surrogate marker for GnRH, and FSH. TNF-α was measured using multiplex technology with a high sensitivity (0.5 pg/mL) assay.
The predefined primary end-point was the baseline adjusted between-group difference in DAS28-CRP by visit 5b. Predefined secondary end-points included the baseline adjusted between-group difference inTNF-α, ACR20/50/70 responses, European League Against Rheumatism (EULAR) responses, DAS28-CRP <2.6 and ≦3.2, and adverse events. Continuous end-points were assessed with regression using day 5 as the response variable, and treatment and baseline measurement as covariates (ANCOVA). No adjustments for multiple analyses were made because of the highly correlated variables. Statistical tests were twosided (α ¼0.05) using Stat12/StatXact9, and performed by an offsite statistician who received the locked database from the blinded investigators, and the allocation key from the offsite central office.

TNF-α = experiment: Example 1: serum TNF-α, high sensitivity bead-based fluorescence immunoassay; format: in vivo, human; conditions: by day 5
Description: (§1) Ethical committee approval was obtained. […] Safety and efficacy visits, with blood sampling, were between 0730 and 0930 h on days 1 (baseline), 2, 3, 4, 5 (visit 5a), 10, and 15. There was an additional visit (visit 5b) between 1930 and 2130 h when maximum GnRH suppression was anticipated.
TNF-α was measured using a high sensitivity bead-based fluorescence immunoassay (Luminex Inc., Austin, Tex. USA) with multiplex technology according to the manufacturers' instructions. […] Samples were assayed together within the same microplate on the same day. The assay sensitivity for TNF-α was 0.5 pg/mL. Due to its skewed distribution, the statistical analysis gives both the log and relative change (%) of TNF-α from baseline.

LH, FSH, cortisol = experiment: Example 1: serum hormone assays (LH, FSH, cortisol); format: in vivo, human
Description: as §1
Non-competitive immunofluorometric assays were used for the quantitative determination of serum LH and FSH (Dissociation Enhanced Lanthanide Fluoroimmunoassay [DELFIA] kit, Turku, Finland). A competitive immunofluorometric assay was used for the determination of serum oestradiol (DELFIA kit, Turku, Finland). A competitive radioimmunoassay was used for the quantitative determination of serum testosterone (Orion Diagnostica. Espoo, Finland). A competitive Iuminoimmunoassay was used for the quantitative determination of serum cortisol (Immulite 2000, California, USA).

With `CC(=O)N[C@H](Cc1ccc2ccccc2c1)C(=O)N[C@H](Cc1ccc(Cl)cc1)C(=O)N[C@H](Cc1cccnc1)C(=O)N[C@@H](CO)C(=O)N[C@@H](Cc1ccc(O)cc1)C(=O)N[C@H](CCCNC(N)=O)C(=O)N[C@@H](CC(C)C)C(=O)N[C@@H](CCCNC(=N)N)C(=O)N1CCC[C@H]1C(=O)N[C@H](C)C(N)=O` [cetrorelix] (Ac-[d2Nal][dPhe(4-Cl)][d3Pal]SY[dCit]LRP[dA]-NH2) the CRP between-group difference (CRP; 95% CI 0.22 to 10.7, P=0.042) was 5.45 mg/L, the CRP change (CRP; placebo 0.85) was -5.1 mg/L and the “Adverse events: Headache” value ([1]; N = 27) was 2 (7.4) no. %. For the same compound, the “Adverse events: Injection site discomfort” value ([1]; N = 27) was 2 (7.4) no. %, the “Adverse events: Nausea” value ([1]; N = 27) was 0 no. % and the Adverse events severity ([1]; high gonadotropin patients) was “mild”. For the same compound, the “IL-10 level, Final Day 15” value (interleukin-10; N = 27, mean ± SD) was −0.31 ± 2.1 log pg/mL, the “IL-10 Change from baseline by day 15” value (interleukin-10; N = 27, placebo +0.13) was −0.40 log pg/mL and the “interleukin-10 change compared with placebo” value (interleukin-10; by day 15, P=0.020) was “significantly decreased”. For the same compound, the “IL-10 Baseline-Adjusted Between-Group Difference” value (interleukin-10; day 15, 95% CI (0.10, 1.08), P < 0.05) was 0.59‡ log pg/mL, the “CRP levels after withdrawal of treatment” value (CRP, ESR; by day 15) was “remained lowered” and the “CRP reduction compared to placebo” value (CRP, ESR; day 5, p 0.060) was “Non-significant reductions”. The “ESR reduction compared to placebo” value (CRP, ESR; day 15, p 0.051) was “Non-significant reductions”, the “TNF-α reduction (change from baseline)” value (TNF-α; all patients with detectable TNF-α, placebo −0.02) was −0.58 log pg/mL and the “TNF-α between group difference vs placebo” value (TNF-α; 95% CI 0.08-1.01, p 0.023) was 0.55 log pg/mL. For the same compound, the “TNF-α percentage change from baseline” value (TNF-α; placebo 11.1%) was −28.2%, the “LH and FSH levels” value (LH, FSH, cortisol; all patients allocated to cetrorelix, onset) was “reduced as early as day 2” and the “Cortisol changes between groups” value (LH, FSH, cortisol; all patients, by day 5, p 0.80) was “not significantly different between groups”.
